According to patent publication US12036231B2, “Cyclic dinucleotides as agonists of stimulator of interferon gene dependent signalling” (Board of Regents, The University of Texas System, priority 2017, dated 2024):

What was measured:
STING receptor [1] = molecular target: T1, STING receptor (Homo sapiens, UniProt Q86WV6, G230A/H232R/R293Q/R71H); assay: THP-1 Dual assay, IRF pathway (secreted Lucia luciferase reporter; IRF3 activation); format: cell-based; conditions: 18 h incubation
T1 construct: host or cells: THP-1 Dual cells (human monocytic THP-1 with NF-kB-SEAP and IRF-Lucia reporters)
Description: (§1) The INVIVOGEN® THP-1 Dual™ assay (catalog code: thpd-nfis) was used to evaluate the listed compounds as agonist of the STING receptor. The THP-1 Dual™ cells are derived from the human monocytic cell line THP-1 by stable integration of two inducible reporter constructs. This assay enables simultaneous study of the two main signaling pathways for STING: (a) the NF-κB pathway, by monitoring the activity of secreted embryonic alkaline phosphatase (SEAP); and (b) the Interferon regulatory factor (IRF) pathway, by assessing the activity of a secreted luciferase (Lucia™).
(§2) The procedure as set forth by the manufacturer was followed, with the following modifications: (1) plates are incubated 18 h after addition of cell suspension, and (2) the optional differentiation step is not employed. Tables 1 and 2. Biological Activity

STING receptor [2] = molecular target: T1, STING receptor; assay: THP-1 Dual assay, NF-κB pathway (SEAP reporter); format: cell-based; conditions: 18 h incubation
Description: as §1, §2

MT4-2D cells = assay: Mouse Ductal Pancreatic Cancer Assay (subcutaneous MT4-2D tumors, intra-tumoral injection); format: in vivo, C57BL/6J mice; conditions: 5 ug intra-tumorally on day 15
Method: Mouse Ductal Pancreatic Cancer Assay
The procedure of Boj et a. […] 2.5×10^5 MT4-2D cells were injected subcutaneously on the right flank of male 6 week old C57BL/6J mice. 5 ug of the indicated STING agonist was injected intra-tumorally on day 15 in a volume of 50 ul.

[3] = day 0 post challenge (before dosing)
[4] = day 4 post challenge (before dosing)
[5] = day 6 post challenge (before dosing)
[6] = day 8 post challenge (before dosing)
[7] = day 10 post challenge (before dosing)
[8] = day 12 post challenge (before dosing)
[9] = day 14 post challenge (before dosing)
[10] = day 15 post challenge (day of dosing)

T1 sequence (Q86WV6 whole entry R71H/G230A/H232R/R293Q): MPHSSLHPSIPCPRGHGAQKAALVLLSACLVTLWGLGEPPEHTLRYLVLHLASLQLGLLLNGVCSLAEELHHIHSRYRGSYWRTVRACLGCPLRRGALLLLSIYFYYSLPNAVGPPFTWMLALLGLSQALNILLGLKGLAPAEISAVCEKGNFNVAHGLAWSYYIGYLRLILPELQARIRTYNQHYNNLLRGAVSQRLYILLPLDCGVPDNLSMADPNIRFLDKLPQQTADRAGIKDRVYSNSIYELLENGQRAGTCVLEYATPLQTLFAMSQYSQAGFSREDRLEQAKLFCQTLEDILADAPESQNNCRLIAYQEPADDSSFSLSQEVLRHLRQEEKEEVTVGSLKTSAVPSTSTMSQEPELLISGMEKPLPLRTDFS

Fold induction of IRF3 activation in THP-1 Dual cells (STING receptor [1]; 1 mg/mL STING agonist) [fold]	Fold induction of IRF3 activation in THP-1 Dual cells (STING receptor [1]; 5 mg/mL STING agonist) [fold]	Fold induction of NF-κB activation THP-1 Dual cells (STING receptor [2]; 5 mg/mL STING agonist) [fold]	Fold induction of IRF3 activation in THP-1 Dual cells (STING receptor [1]; 0.1 mg/mL STING agonist) [fold]	Fold induction of IRF3 activation in THP-1 Dual cells (STING receptor [1]; 0.5 mg/mL STING agonist) [fold]	Fold induction of IRF3 activation in THP-1 Dual cells (STING receptor [1]; 10 mg/mL STING agonist) [fold]	Fold induction of NF-κB activation THP-1 Dual cells (STING receptor [2]; 0.1 mg/mL STING agonist) [fold]	Fold induction of NF-κB activation THP-1 Dual cells (STING receptor [2]; 0.5 mg/mL STING agonist) [fold]	Fold induction of NF-κB activation THP-1 Dual cells (STING receptor [2]; 1 mg/mL STING agonist) [fold]	Fold induction of NF-κB activation THP-1 Dual cells (STING receptor [2]; 10 mg/mL STING agonist) [fold]	Compound	Tumor Vol (MT4-2D cells; [3]) [mm^3]	Tumor Vol (MT4-2D cells; [4]) [mm^3]	Tumor Vol (MT4-2D cells; [5]) [mm^3]	Tumor Vol (MT4-2D cells; [6]) [mm^3]	Tumor Vol (MT4-2D cells; [7]) [mm^3]	Tumor Vol (MT4-2D cells; [8]) [mm^3]	Tumor Vol (MT4-2D cells; [9]) [mm^3]	Tumor Vol (MT4-2D cells; [10]) [mm^3]	Tumor Vol (MT4-2D cells; day 16 post challenge) [mm^3]	Tumor Vol (MT4-2D cells; day 22 post challenge) [mm^3]	further results
9.77	112.64	2.77	–	–	–	–	–	–	–	Nc1ncnc2c1ccn2[C@@H]1O[C@@H]2COP(=O)(S)O[C@@H]3[C@H](O)[C@@H](CO[P@@](=O)(S)O[C@@H]2[C@H]1O)O[C@H]3n1cnc2c(N)ncnc21 (single isomer, unassigned) [Example 1a]	–	–	–	–	–	–	–	–	–	–	–
3.52	25.91	1.29	0.99	1.88	87.63	0.97	0.99	1.01	3.71	Nc1ncnc2c1ccn2[C@@H]1O[C@@H]2COP(=O)(S)O[C@@H]3[C@H](O)[C@@H](CO[P@@](=O)(S)O[C@@H]2[C@H]1O)O[C@H]3n1cnc2c(N)ncnc21 (single isomer, unassigned) [Example 1b]	–	–	–	–	–	–	–	–	–	–	–
1.56	5.05	1.08	1.38	1.48	6.70	0.98	0.99	1.00	1.14	Nc1ncnc2c1ccn2[C@@H]1O[C@@H]2CO[P@@](=O)(S)O[C@@H]3[C@@H](O)[C@H](n4cnc5c(N)ncnc54)O[C@@H]3COP(=O)(S)O[C@@H]1[C@@H]2O (stereo partly drawn) [Example 3b, (1R,6R,8R,9R,10R,12R,15R,17R,18R)-17-(4-amino-7H-pyrrolo[2,3-d]pyrimidin-7-yl)-8-(6-amino-9H-purin-9-yl)-9,18-dihydroxy-3,12-dimercapto-2,4,7,11,13,16-hexaoxa-3λ^5, 12λ^5-diphosphatricyclo[13.2.1.0^6,10]octadecane-3,12-dione]	–	–	–	–	–	–	–	–	–	–	–

More lines, now with the values behind:

Compound	Fold induction of IRF3 activation in THP-1 Dual cells (STING receptor [1]; 1 mg/mL STING agonist) [fold]	Fold induction of IRF3 activation in THP-1 Dual cells (STING receptor [1]; 5 mg/mL STING agonist) [fold]	Fold induction of NF-κB activation THP-1 Dual cells (STING receptor [2]; 5 mg/mL STING agonist) [fold]	Fold induction of IRF3 activation in THP-1 Dual cells (STING receptor [1]; 0.1 mg/mL STING agonist) [fold]	Fold induction of IRF3 activation in THP-1 Dual cells (STING receptor [1]; 0.5 mg/mL STING agonist) [fold]	Fold induction of IRF3 activation in THP-1 Dual cells (STING receptor [1]; 10 mg/mL STING agonist) [fold]	Fold induction of NF-κB activation THP-1 Dual cells (STING receptor [2]; 0.1 mg/mL STING agonist) [fold]	Fold induction of NF-κB activation THP-1 Dual cells (STING receptor [2]; 0.5 mg/mL STING agonist) [fold]	Fold induction of NF-κB activation THP-1 Dual cells (STING receptor [2]; 1 mg/mL STING agonist) [fold]	Fold induction of NF-κB activation THP-1 Dual cells (STING receptor [2]; 10 mg/mL STING agonist) [fold]	Tumor Vol (MT4-2D cells; [3]) [mm^3]	Tumor Vol (MT4-2D cells; [4]) [mm^3]	Tumor Vol (MT4-2D cells; [5]) [mm^3]	Tumor Vol (MT4-2D cells; [6]) [mm^3]	Tumor Vol (MT4-2D cells; [7]) [mm^3]	Tumor Vol (MT4-2D cells; [8]) [mm^3]	Tumor Vol (MT4-2D cells; [9]) [mm^3]	Tumor Vol (MT4-2D cells; [10]) [mm^3]	Tumor Vol (MT4-2D cells; day 16 post challenge) [mm^3]	Tumor Vol (MT4-2D cells; day 22 post challenge) [mm^3]	further results
Nc1nc2c(ncn2[C@@H]2O[C@@H]3COP(=O)(O)O[C@H]4[C@@H](O)[C@H](n5cnc6c(=O)[nH]c(N)nc65)O[C@@H]4COP(=O)(O)O[C@H]3[C@H]2O)c(=O)[nH]1 [3′,5′-c-di-GMP, cyclic di-GMP (guanosine 5′-monophosphate), reference compound]	1.32	2.87	1.02	1.07	1.26	5.93	0.99	0.98	0.97	1.10	–	–	–	–	–	–	–	–	–	–	–
Nc1ncnc2c1ncn2[C@@H]1O[C@@H]2COP(=O)(S)O[C@@H]3[C@H](O)[C@@H](CO[P@@](=O)(S)O[C@H]2[C@H]1F)O[C@H]3n1cnc2c(N)ncnc21 (stereo partly drawn) [Example 2a, (1R,6R,8R,9R,10R,12R,15R,17R,18R)-8,17-di(6-amino-9H-purin-9-yl)-9-fluoro-18-hydroxy-3,12-dimercapto-2,4,7,11,13,16-hexaoxa-3λ^5, 12λ^5-diphosphatricyclo-[13.2.1.0^6,10]octadecane-3,12-dione]	–	–	–	–	–	–	–	–	–	–	0.0	29.2	64.3	84.3	103.3	125.9	113.8	132.1	134.0	91.6	Tumor Vol (MT4-2D cells; day 17 post challenge): 122.7 mm^3; Tumor Vol (MT4-2D cells; day 18 post challenge): 82.8 mm^3; Tumor Vol (MT4-2D cells; day 20 post challenge): 72.8 mm^3; Tumor Vol (MT4-2D cells; day 25 post challenge): 124.0 mm^3; Tumor Vol (MT4-2D cells; day 27 post challenge): 142.0 mm^3; Tumor Vol (MT4-2D cells; day 29 post challenge): 163.1 mm^3; Tumor Vol (MT4-2D cells; day 32 post challenge): 217.7 mm^3
Nc1ncnc2c1ncn2[C@@H]1O[C@@H]2COP(=O)(S)O[C@@H]3[C@H](O)[C@@H](CO[P@@](=O)(S)O[C@H]2[C@H]1F)O[C@H]3n1cnc2c(N)ncnc21 (stereo partly drawn) [Example 2b, (1R,6R,8R,9R,10R,12R,15R,17R,18R)-8,17-di(6-amino-9H-purin-9-yl)-9-fluoro-18-hydroxy-3,12-dimercapto-2,4,7,11,13,16-hexaoxa-3λ^5, 12λ^5-diphosphatricyclo-[13.2.1.0^6,10]octadecane-3,12-dione]	–	–	–	–	–	–	–	–	–	–	0.0	28.4	53.9	66.5	87.4	98.3	106.6	114.7	130.8	64.9	Tumor Vol (MT4-2D cells; day 17 post challenge): 128.3 mm^3; Tumor Vol (MT4-2D cells; day 18 post challenge): 90.4 mm^3; Tumor Vol (MT4-2D cells; day 20 post challenge): 115.3 mm^3; Tumor Vol (MT4-2D cells; day 25 post challenge): 70.4 mm^3; Tumor Vol (MT4-2D cells; day 27 post challenge): 80.7 mm^3; Tumor Vol (MT4-2D cells; day 29 post challenge): 99.6 mm^3; Tumor Vol (MT4-2D cells; day 32 post challenge): 102.6 mm^3
Nc1ncnc2c1ncn2[C@@H]1O[C@@H]2COP(O)(=S)O[C@@H]3C(O)[C@@H](COP(O)(=S)O[C@H]2[C@H]1O)O[C@H]3n1cnc2c(N)ncnc21 (stereo partly drawn) [ML-RR-CDA, dithio-[Rp,Sp]-cyclic-[A(2′,5′)p-A(3′,5′)p], reference compound]	–	–	–	–	–	–	–	–	–	–	0.0	19.0	56.3	81.9	84.5	107.3	110.9	125.6	193.2	147.2	Tumor Vol (MT4-2D cells; day 25 post challenge): 154.0 mm^3; Tumor Vol (MT4-2D cells; day 27 post challenge): 241.4 mm^3; Tumor Vol (MT4-2D cells; day 29 post challenge): 198.5 mm^3; Tumor Vol (MT4-2D cells; day 32 post challenge): 250.1 mm^3
